Assay results published in patent US10526337B2, “Heteroaryl derivative or pharmaceutically acceptable salt thereof, preparation method therefor, and pharmaceutical composition for preventing or treating diseases associated with PI3 kinases, containing same as active ingredient” (KOREA RESEARCH INSTITUTE OF CHEMICAL TECHNOLOGY, priority 2015, dated 2020).

Tests used:
PI3 Kinase (p120γ) (h) = biological target: T1, PI3 Kinase (p120γ) (h) (Homo sapiens, UniProt P48736); assay: Inhibition of phosphatidylinositol 3-kinase gamma (PI3K γ), pAkt Western blotting in C5a-stimulated RAW264.7 macrophages; assay type: cell-based, mouse; settings: ATP=10 uM, sample concentration=100 nM
T1 construct: endogenous in cells; host or cells: RAW264.7
T1 sequence (P48736 whole entry): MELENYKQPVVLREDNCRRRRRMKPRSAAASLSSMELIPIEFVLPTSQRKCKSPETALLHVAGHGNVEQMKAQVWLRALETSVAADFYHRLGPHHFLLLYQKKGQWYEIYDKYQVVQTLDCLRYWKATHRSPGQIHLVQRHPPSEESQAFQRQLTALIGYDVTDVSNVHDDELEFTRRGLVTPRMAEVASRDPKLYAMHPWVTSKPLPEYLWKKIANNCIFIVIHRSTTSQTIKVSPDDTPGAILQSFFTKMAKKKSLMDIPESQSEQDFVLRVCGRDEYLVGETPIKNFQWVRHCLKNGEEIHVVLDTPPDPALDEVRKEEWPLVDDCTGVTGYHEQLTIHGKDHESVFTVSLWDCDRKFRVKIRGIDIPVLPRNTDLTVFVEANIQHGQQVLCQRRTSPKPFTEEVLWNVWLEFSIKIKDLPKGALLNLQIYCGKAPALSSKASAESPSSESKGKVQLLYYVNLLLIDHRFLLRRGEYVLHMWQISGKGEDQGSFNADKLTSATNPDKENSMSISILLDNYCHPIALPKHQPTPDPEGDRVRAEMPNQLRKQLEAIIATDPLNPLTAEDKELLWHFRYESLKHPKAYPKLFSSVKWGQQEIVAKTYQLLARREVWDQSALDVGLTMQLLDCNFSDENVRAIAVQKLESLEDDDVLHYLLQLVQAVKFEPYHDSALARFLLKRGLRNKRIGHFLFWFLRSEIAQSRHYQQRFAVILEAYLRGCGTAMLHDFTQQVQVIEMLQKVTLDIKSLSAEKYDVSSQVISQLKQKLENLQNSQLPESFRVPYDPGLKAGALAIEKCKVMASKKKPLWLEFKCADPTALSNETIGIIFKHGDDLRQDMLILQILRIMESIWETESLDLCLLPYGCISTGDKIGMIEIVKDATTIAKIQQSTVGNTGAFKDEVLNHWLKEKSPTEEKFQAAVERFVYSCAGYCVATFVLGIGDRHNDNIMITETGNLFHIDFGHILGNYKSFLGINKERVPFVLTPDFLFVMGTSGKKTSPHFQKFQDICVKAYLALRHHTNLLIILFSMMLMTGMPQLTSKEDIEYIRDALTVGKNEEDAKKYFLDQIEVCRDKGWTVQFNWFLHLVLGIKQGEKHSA
Procedure: (§1) The stimulated cells were transferred in a 1.5 mL tube, followed by centrifugation at 3000 rpm for 1 minute. 100 μL of RIPA buffer (radioimmunoprecipitation assay buffer, 50 mM Tris-HCl, 5 mM EDTA, 150 mM NaCl, 1% NP-40, 1 mM PMSF, pH 8.0; ELPIS, Korea) was added thereto, which was stored in a 4° C. refrigerator for 12 hours. Centrifugation was performed at 4° C. at 14,000 rpm for 20 minutes. The supernatant was transferred into a new 1.5 mL tube. Protein was quantified by BCA (bicinchoninic acid) method and samples were prepared. The composition of the sample was as follows: sample buffer (ELPIS, EBA-1052) 5×, protein 10 μg, and 1× sample buffer to make the total volume 20 μL. The sample was heated at 100° C. for 5 minutes. The evaporated water vapor was condensed in a refrigerator. The liquid stained on the wall was fallen down by centrifugation for a few seconds. The sample proceeded to 10% SDS (Sodium Dodecyl Sulfate) acrylamide gel for separation. The separated protein was transferred onto PVDF (poly-vinyl difluoride) membrane, followed by reaction with pAkt (phospho protein kinase B) antibody (Ser473 or Thr308; Cell signaling, 9271s or 13038s) for 12 hours at 4° C. The membrane was washed with TBST (Tris-Buffered Saline with Tween 20, 10 mM Tris-HCl, pH 7.5, 150 mM NaCl, 0.1% Tween-20) three times for 5 minutes each, to which the secondary antibody (rabbit antibody, Santacruz, sc-2004) was added, followed by reaction at room temperature for 2 hours. The membrane was washed with TBST three times for 10 minutes each, to which ECL (enhanced chemiluminescence, Thermo, NCI34095KR) was sprayed. Bands were investigated by using LAS-3000.
The inhibition of phosphatidylinositol 3 kinase gamma (PI3K γ) by those compounds prepared in Examples 1˜98 was investigated by the following experiment. The inhibition activity of each compound was measured in the following conditions: ATP=10 uM, and sample concentration=100 nM.
(§2) Macrophages (RAW264.7) cultured in DMEM (Dulbecco's Modified Eagle Medium, Hyclon, SH30243.01) supplemented with 10% fetal bovine serum (Hyclon, USA) were distributed in a 12-well plate at the density of 1,000,000 cells/well. The cells were stabilized in a 37° C. CO2 for 24 hours and then treated with each compound for 1 and half hours. The cells were treated with 10 ng/mL of C5a (complement component 5a, 10 μg/mL; R&D, 2150-C5) to increase the intracellular activity of PI3K gamma. 5 minutes later, the medium was discarded and the cells were washed with cold PBS (phosphate buffered saline, Gibco, 14190-250). PBS was then eliminated completely by using a pipette. Western blotting was performed according to the same manner as described in step 2 of Experimental Example 1 to evaluate the intracellular PI3K gamma activity.

[1] = biological target: T2, PI3 Kinase (p110δ/p85α) (h) (Homo sapiens, UniProt O00329); assay: Inhibition of phosphatidylinositol 3-kinase delta (PI3K δ), pAkt Western blotting in IgM-stimulated Raji cells; assay type: cell-based; settings: ATP=10 uM, sample concentration=100 nM
T2 construct: endogenous in cells; host or cells: Raji
T2 sequence (O00329 whole entry): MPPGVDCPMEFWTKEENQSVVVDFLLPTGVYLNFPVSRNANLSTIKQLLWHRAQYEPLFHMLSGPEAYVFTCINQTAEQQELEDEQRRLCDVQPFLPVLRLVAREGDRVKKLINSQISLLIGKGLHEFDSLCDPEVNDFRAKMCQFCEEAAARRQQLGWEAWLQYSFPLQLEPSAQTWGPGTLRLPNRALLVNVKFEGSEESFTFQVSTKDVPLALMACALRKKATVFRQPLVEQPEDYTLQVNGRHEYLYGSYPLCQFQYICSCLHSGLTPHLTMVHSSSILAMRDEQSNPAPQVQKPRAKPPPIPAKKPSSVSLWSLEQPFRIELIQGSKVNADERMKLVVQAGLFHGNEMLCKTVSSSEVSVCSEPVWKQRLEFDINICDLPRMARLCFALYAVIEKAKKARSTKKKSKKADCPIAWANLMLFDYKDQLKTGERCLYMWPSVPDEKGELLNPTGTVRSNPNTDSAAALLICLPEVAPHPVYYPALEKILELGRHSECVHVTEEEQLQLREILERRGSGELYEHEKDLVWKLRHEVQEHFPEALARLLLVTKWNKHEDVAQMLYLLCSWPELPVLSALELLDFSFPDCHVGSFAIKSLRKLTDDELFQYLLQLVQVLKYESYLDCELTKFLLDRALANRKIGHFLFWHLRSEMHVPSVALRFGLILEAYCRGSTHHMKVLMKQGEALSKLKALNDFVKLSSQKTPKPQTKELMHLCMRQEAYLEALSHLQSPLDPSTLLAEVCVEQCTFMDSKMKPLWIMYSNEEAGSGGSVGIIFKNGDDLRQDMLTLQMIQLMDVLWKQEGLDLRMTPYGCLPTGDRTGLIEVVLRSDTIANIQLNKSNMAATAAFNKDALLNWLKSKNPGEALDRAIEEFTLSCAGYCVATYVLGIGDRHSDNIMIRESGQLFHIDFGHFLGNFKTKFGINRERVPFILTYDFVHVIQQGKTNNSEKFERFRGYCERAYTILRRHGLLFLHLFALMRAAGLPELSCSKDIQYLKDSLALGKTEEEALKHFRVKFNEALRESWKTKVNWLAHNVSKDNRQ
T2 sequence (P27986 whole entry partner): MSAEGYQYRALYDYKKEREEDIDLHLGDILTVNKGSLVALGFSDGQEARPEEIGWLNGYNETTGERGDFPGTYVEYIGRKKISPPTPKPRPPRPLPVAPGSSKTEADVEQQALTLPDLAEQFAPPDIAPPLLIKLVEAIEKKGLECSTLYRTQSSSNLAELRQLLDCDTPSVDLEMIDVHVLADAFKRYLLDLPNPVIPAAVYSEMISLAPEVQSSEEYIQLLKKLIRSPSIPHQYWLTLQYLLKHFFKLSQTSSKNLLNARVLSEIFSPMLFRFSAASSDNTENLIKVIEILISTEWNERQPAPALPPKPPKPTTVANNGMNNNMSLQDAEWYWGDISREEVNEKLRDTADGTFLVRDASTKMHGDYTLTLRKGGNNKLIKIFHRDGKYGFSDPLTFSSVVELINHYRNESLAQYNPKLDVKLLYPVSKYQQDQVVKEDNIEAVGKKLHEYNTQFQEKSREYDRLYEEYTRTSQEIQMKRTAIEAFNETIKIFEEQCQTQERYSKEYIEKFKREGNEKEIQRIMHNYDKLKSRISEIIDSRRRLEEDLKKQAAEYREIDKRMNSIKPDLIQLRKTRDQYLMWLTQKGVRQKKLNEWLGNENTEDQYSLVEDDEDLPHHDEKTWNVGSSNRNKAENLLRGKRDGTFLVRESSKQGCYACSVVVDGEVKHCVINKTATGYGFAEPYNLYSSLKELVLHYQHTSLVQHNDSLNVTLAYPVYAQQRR
Procedure: as §1
The inhibition of phosphatidylinositol 3 kinase delta (PI3K δ) by those compounds prepared in Examples 1˜98 was investigated by the following experiment. The inhibition activity of each compound was measured in the following conditions: ATP=10 uM, and sample concentration=100 nM.
as §2, with “Raji cells” for “Macrophages (RAW264.7)”, “RPMI1640 (Hyclone, SH30027.02)” for “DMEM (Dulbecco's Modified Eagle Medium, Hyclon, SH30243.01)”, “0.25 μg/mL” for “10 ng/mL”, “IgM (immunoglobulin M, Southern Biotech, USA)” for “C5a (complement component 5a, 10 μg/mL; R&D, 2150-C5)”, “delta. 30” for “gamma. 5”, “delta” for “gamma”

IC50 (PI3 Kinase (p120γ) (h)) [µM] | IC50 [1] [µM] | Structure (SMILES)
0.01 to 0.5 | 0.01 to 0.5 | Cc1cccc(-n2c([C@@H]3CCCN3c3ncnc4c3C(=O)N(C)CN4)nc3cccc(Cl)c3c2=O)c1 [Example 45, (S)-5-(2-(5-chloro-4-oxo-3-(m-tolyl)-3,4-dihydroquinazoline-2-yl)pyrrolidine-1-yl)-3-methyl-2,3-dihydropyrimido[4,5-d]pyrimidine-4(1H)-one]
0.01 to 0.5 | < 0.01 | CN1CNc2ncnc(N3CCC[C@H]3c3cc4cccc(Cl)c4c(=O)n3-c3ccccc3)c2C1=O [Example 46, (S)-5-(2-(8-chloro-1-oxo-2-phenyl-1,2-dihydroisoquinoline-3-yl)pyrrolidine-1-yl)-3-methyl-2,3-dihydropyrimido[4,5-d]pyrimidine-4(1H)-one]
0.01 to 0.5 | 0.01 to 0.5 | CN1CNc2ncnc(N3CCC[C@H]3c3nn4ccc(Cl)c4c(=O)n3-c3ccccc3)c2C1=O [Example 47, (S)-5-(2-(5-chloro-4-oxo-3-phenyl-3,4-dihydropyrrolo[2,1-f][1,2,4]triazine-2-yl)pyrrolidine-1-yl)-3-methyl-2,3-dihydropyrimido[4,5-d]pyrimidine-4(1H)-one]
< 0.01 | < 0.01 | C[C@H](Nc1nc(N)nc2c1C(=O)N(C)CN2)c1nc2cccc(Cl)c2c(=O)n1-c1ccccc1 [Example 48, (S)-7-amino-5-((1-(5-chloro-4-oxo-3-phenyl-3,4-dihydroquinazoline-2-yl)ethyl)amino)-3-methyl-2,3-dihydropyrimido[4,5-d]pyrimidine-4(1H)-one]
0.01 to 0.5 | < 0.01 | C[C@H](Nc1nc(N)nc2c1C(=O)N(C)CN2)c1nc2cccc(Cl)c2c(=O)n1-c1cccnc1 [Example 49, (S)-7-amino-5-((1-(5-chloro-4-oxo-3-(pyridine-3-yl)-3,4-dihydroquinazoline-2-yl)ethyl)amino)-3-methyl-2,3-dihydropyrimido[4,5-d]pyrimidine-4(1H)-one]
0.01 to 0.5 | < 0.01 | C[C@H](Nc1nc(N)nc2c1C(=O)N(C)CN2)c1nc2cccc(Cl)c2c(=O)n1-c1cccc(F)c1 [Example 50, (S)-7-amino-5-((1-(5-chloro-3-(3-fluorophenyl)-4-oxo-3,4-dihydroquinazoline-2-yl)ethyl)amino)-3-methyl-2,3-dihydropyrimido[4,5-d]pyrimidine-4(1H)-one]
0.01 to 0.5 | < 0.01 | Cc1cccc(-n2c([C@H](C)Nc3nc(N)nc4c3C(=O)N(C)CN4)nc3cccc(Cl)c3c2=O)c1 [Example 51, (S)-7-amino-5-((1-(5-chloro-4-oxo-3-(m-tolyl)-3,4-dihydroquinazoline-2-yl)ethyl)amino)-3-methyl-2,3-dihydropyrimido[4,5-d]pyrimidine-4(1H)-one]
< 0.01 | < 0.01 | C[C@H](Nc1nc(N)nc2c1C(=O)N(C)CN2)c1cc2cccc(Cl)c2c(=O)n1-c1ccccc1 [Example 52, (S)-7-amino-5-((1-(8-chloro-1-oxo-2-phenyl-1,2-dihydroisoquinoline-3-yl)ethyl)amino)-3-methyl-2,3-dihydropyrimido[4,5-d]pyrimidine-4(1H)-one]
0.01 to 0.5 | 0.01 to 0.5 | C[C@H](Nc1nc(N)nc2c1C(=O)N(C)CN2)c1cc2ccccc2nc1-c1ccccc1 [Example 53, (S)-7-amino-3-methyl-5-((1-(2-phenylquinoline-3-yl)ethyl)amino)-2,3-dihydropyrimido[4,5-d]pyrimidine-4(1H)-one]
0.01 to 0.5 | 0.01 to 0.5 | CC[C@H](Nc1nc(N)nc2c1C(=O)N(C)CN2)c1nc2cccc(F)c2c(=O)n1-c1ccccc1 [Example 54, (S)-7-amino-5-((1-(5-fluoro-4-oxo-3-phenyl-3,4-dihydroquinazoline-2-yl)propyl)amino)-3-methyl-2,3-dihydropyrimido[4,5-d]pyrimidine-4(1H)-one]
0.01 to 0.5 | 0.01 to 0.5 | CN1CNc2nc(N)nc(N3CCC[C@H]3c3nc4cccc(Cl)c4c(=O)n3-c3ccccc3)c2C1=O [Example 55, (S)-7-amino-5-(2-(5-chloro-4-oxo-3-phenyl-3,4-dihydroquinazoline-2-yl)pyrrolidine-1-yl)-3-methyl-2,3-dihydropyrimido[4,5-d]pyrimidine-4(1H)-one]
> 0.5 | > 0.5 | CN1CNc2nc(N)nc(N3CCC[C@H]3c3nc4cccc(Cl)c4c(=O)n3-c3cccnc3)c2C1=O [Example 56, (S)-7-amino-5-(2-(5-chloro-4-oxo-3-(pyridine-3-yl)-3,4-dihydroquinazoline-2-yl)pyrrolidine-1-yl)-3-methyl-2,3-dihydropyrimido[4,5-d]pyrimidine-4(1H)-one]
0.01 to 0.5 | > 0.5 | CN1CNc2nc(N)nc(N3CCC[C@H]3c3nc4cccc(Cl)c4c(=O)n3-c3cccc(F)c3)c2C1=O [Example 57, (S)-7-amino-5-(2-(5-chloro-3-(3-fluorophenyl)-4-oxo-3,4-dihydroquinazoline-2-yl)pyrrolidine-1-yl)-3-methyl-2,3-dihydropyrimido[4,5-d]pyrimidine-4(1H)-one]
> 0.5 | > 0.5 | Cc1cccc(-n2c([C@@H]3CCCN3c3nc(N)nc4c3C(=O)N(C)CN4)nc3cccc(Cl)c3c2=O)c1 [Example 58, (S)-7-amino-5-(2-(5-chloro-4-oxo-3-(m-tolyl)-3,4-dihydroquinazoline-2-yl)pyrrolidine-1-yl)-3-methyl-2,3-dihydropyrimido[4,5-d]pyrimidine-4(1H)-one]
> 0.5 | > 0.5 | CN1CNc2nc(N)nc(N3CCC[C@H]3c3cc4cccc(Cl)c4c(=O)n3-c3ccccc3)c2C1=O [Example 59, (S)-7-amino-5-(2-(8-chloro-1-oxo-2-phenyl-1,2-dihydroisoquinoline-3-yl)pyrrolidine-1-yl)-3-methyl-2,3-dihydropyrimido[4,5-d]pyrimidine-4(1H)-one]
> 0.5 | > 0.5 | CC(C)N1CNc2ncnc(N[C@@H](C)c3cc4cccc(Cl)c4c(=O)n3-c3ccccc3)c2C1=O [Example 64, (S)-5-(1-(8-chloro-1-oxo-2-phenyl-1,2-dihydroisoquinoline-3-yl)ethylamino)-3-isopropyl-2,3-dihydropyrimido[4,5-d]pyrimidine-4(1H)-one]
> 0.5 | > 0.5 | CC[C@H](Nc1ncnc2c1C(=O)N(C(C)C)CN2)c1nc2cccc(F)c2c(=O)n1-c1ccccc1 [Example 65, (S)-5-(1-(5-fluoro-4-oxo-3-phenyl-3,4-dihydroquinazoline-2-yl)propylamino)-3-isopropyl-2,3-dihydropyrimido[4,5-d]pyrimidine-4(1H)-one]
> 0.5 | 0.01 to 0.5 | C[C@H](Nc1ncnc2[nH]cnc(=O)c12)c1nc2cccc(Cl)c2c(=O)n1-c1ccccc1 [Example 66, (S)-5-((1-(5-chloro-4-oxo-3-phenyl-3,4-dihydroquinazoline-2-yl)ethyl)amino)pyrimido[4,5-d]pyrimidine-4(1H)-one]
> 0.5 | > 0.5 | C[C@H](Nc1ncnc2[nH]cnc(=O)c12)c1nc2cccc(Cl)c2c(=O)n1-c1cccnc1 [Example 67, (S)-5-((1-(5-chloro-4-oxo-3-(pyridine-3-yl)-3,4-dihydroquinazoline-2-yl)ethyl)amino)pyrimido[4,5-d]pyrimidine-4(1H)-one]
